PMC12028158, “Synthesis and In Vitro Evaluation of the Anticancer Effect of Novel Phosphonium Vindoline Derivatives” (International Journal of Molecular Sciences, 2025)

How the values were obtained:
non-tumor CHO cells = assay: CellTiter-Glo Luminescent Cell Viability Assay; assay type: cell-based, Chinese hamster; settings: for IC50: Cricetulus griseus, 48 h treatment, read-out: IC50 (estimated)
Procedure: Conjugates 9b and 9e were selected based on their antitumor effects to be tested on non-tumor CHO cells in the CellTiter-Glo Luminescent Cell Viability Assay to investigate their potential selectivity for cancer cells. Following a 48 h treatment with the conjugates in the 0.10–10 µM concentration range, a concentration-dependent decrease in the luminescent signal was observed, indirectly representing the ATP production of living cells as an indicator of cell viability.
Conjugates 9b and 9e were dissolved in DMSO in 10 mM stock solutions and stored frozen until use. CHO cells were cultured in complete Dulbecco’s Modified Eagle’s Medium (DMEM, low glucose (1 g/L) supplemented with 10% fetal bovine serum, 1% Gibco GlutaMAX-I (100×) solution, 1% Gibco MEM non-essential amino acid solution (100×), and 0.1% penicillin–streptomycin mixture). The CellTiter-Glo Luminescent Cell Viability Assay (Promega Corporation, Madison, WI, USA) was performed as previously described. Cells were grown under standard cell culture conditions (37 °C, 5% CO2) and passaged at 70–80% confluency. According to the manufacturer’s protocol, CHO cells were seeded to opaque 96-well culture plates (5000 cells/100 µL complete DMEM/well) and the side rows and columns of the plate were filled with sterile phosphate-buffer saline to avoid artifacts. […] The luminescent signal was measured for each assay well with an EnSpire AlphaLisa microplate reader (Perkin Elmer, Inc., Waltham, MA, USA). […] Estimated IC50 values were calculated using non-linear regression by fitting a sigmoidal dose-response curve to the data points (log(inhibitor) vs. normalized response, variable slope, and least squares fit).
Statistical analysis (ANOVA) and estimation of IC50 values were performed in GraphPad Prism 8.0.1 (GraphPad, La Jolla, CA, USA). Estimated IC50 values were calculated using non-linear regression by fitting a sigmoidal dose-response curve to the data points (log(inhibitor) vs. normalized response, variable slope, least squares fit).

HeLa = assay: MTT antiproliferative assay; assay type: cell-based, human
Procedure: (§1) The antiproliferative properties of the tested compounds were additionally determined using the MTT assay against a panel of human adherent cancer cell lines isolated from breast (MCF-7 and MDA-MB-231), cervical (HeLa and SiHa), and ovarian (A2780) tumors and also on the NIH/3T3 fibroblast cell line (Table 3). IC50 values were calculated from a wider concentration range (0.1–30 μM) when higher than 50% cell growth inhibition was obtained at 10 μM (Table 4). Cisplatin was used as a reference compound. […] The noncancerous fibroblast cell line NIH/3T3 was used to gather preliminary data regarding the cancer selectivity of vindolin derivatives. […] The tumor selectivity of compound 9g, expressed as the ratio of IC50 on cancer cells and fibroblasts, is substantially higher than that of cisplatin (Table 4).
(§2) The antiproliferative effects of the prepared derivatives were evaluated in vitro using the MTT assay against a panel of human adherent cancer cell lines, including breast (MDA-MB-231, MCF-7), cervical (SiHa, HeLa), and ovarian (A2780) cancer cells. The noncancerous fibroblast cell line NIH/3T3 was included to obtain data concerning the tumor selectivity of the test substances. All cell lines were sourced from the European Collection of Cell Cultures (Salisbury, UK), except for SiHa (American Tissue Culture Collection (Manassas, VA, USA). All cell lines were maintained in Eagle’s Minimal Essential Medium (EMEM) supplemented with 10% fetal bovine serum (FBS), 1% non-essential amino acids, and a mixture of penicillin, streptomycin, and amphotericin B. The cells were maintained in a humidified atmosphere containing 5% CO2 at 37 °C. The media and the cell culture supplements were procured from Capricorn Scientific Ltd. (Ebsdorfergrund, Germany). Cells were seeded into 96-well microplates at 5000/well and, the next day, treated with vindoline derivatives at two concentrations (10 or 30 μM) for 72 h under cell culturing conditions. […] When higher than 50% cell growth inhibition was observed, the assay was repeated using a wide concentration range (0.1–30 μM). The IC50 values were calculated using GraphPad Prism software 10.3.1 (GraphPad Software, San Diego, CA, USA). Two independent experiments were performed with at least five replicates per condition.

A2780 cells = assay: Wound healing migration assay; assay type: cell-based, human; settings: A2780, sub-inhibitory concentrations (0.5 or 1.0 µM), 24 and 48 h
Procedure: The antimigratory properties of compound 9g were investigated using the in vitro wound healing assay against the ovarian cancer cell line A2780.
The effect of compound 9g on the migration of A2780 cells was assessed using a wound-healing assay. A2780 cells were trypsinized and seeded into specialized wound assay chambers (ibidi GmbH, Martinsried, Germany) at a density of 80,000 cells/insert and the plate was incubated under standard conditions to allow proper attachment. After incubation, the inserts were carefully removed and the wells were washed twice with PBS to eliminate non-adherent cells and debris. The cells were subsequently treated with […] at 0.5 or 1.0 µM in fresh medium containing 2% FBS. The migration of cells toward the wound site was visualized using a phase-contrast inverted microscope (Nikon Instruments Europe, Amstelveen, The Netherlands) and images were captured with a CCD camera (QImaging MicroPublisher Color RTV5.0 Teledyne Photometrics, Tucson, AZ, USA). The percentage of cell migration was calculated at different time intervals (0, 24, and 48 h) by measuring the cell-free area in treated samples against untreated controls using ImageJ software 1.54d (National Institutes of Health, Bethesda, MD, USA). The experiments were conducted twice with at least three parallel samples.

NIH/3T3 (fibroblast) = assay: MTT antiproliferative assay; assay type: cell-based; settings: Mus musculus, 72 h
Procedure: as §1, §2

[1] = system: 60 human tumor cell lines (NCI60); design: method as in PMID 39063170; settings: previous work; cited from earlier work

Which IC50 (non-tumor CHO cells) does the source give for `CC[C@]12C=CCN3CC[C@@]4(c5ccc(OC)cc5N(C)[C@H]4[C@@](O)(C(=O)OC)[C@@H]1OC(=O)CCC[P+](c1ccc(OC)cc1)(c1ccc(OC)cc1)c1ccc(OC)cc1)[C@@H]32` [9b] here?
Its IC50 is 2.98 µM.

With `CC[C@]12C=CCN3CC[C@@]4(c5ccc(OC)cc5N(C)[C@H]4[C@@](O)(C(=O)OC)[C@@H]1OC(=O)CCC[P+](c1cc(C)c(OC)c(C)c1)(c1cc(C)c(OC)c(C)c1)c1cc(C)c(OC)c(C)c1)[C@@H]32` [9e] as the molecule, how does the decrease in viability (non-tumor CHO cells; 1.0 µM, 48 h) read?
The decrease in viability was 26.4 ± 5.8%.

And the IC50 (non-tumor CHO cells)?
The IC50 was 1.36 µM.

For `CC[C@]12C=CCN3CC[C@@]4(c5ccc(OC)cc5N(C)[C@H]4[C@@](O)(C(=O)OC)[C@@H]1OC(=O)CCC[P+](c1ccccc1)(c1ccccc1)c1ccccn1)[C@@H]32` [9g], which inhibition at 10 µM (HeLa; Homo sapiens, HeLa, 10 μM, 72 h, read-out: Growth Inhibition (%) ± SEM) is on record?
Its inhibition at 10 µM is 61.5 ± 2.35%.

And the inhibition at 30 µM (HeLa; Homo sapiens, HeLa, 30 μM, 72 h, read-out: Growth Inhibition (%) ± SEM (converted))?
The inhibition at 30 µM was 68.5%.

What about the IC50 (HeLa; Homo sapiens, HeLa, MTT, 72 h, read-out: IC50 Value (μM) ± SEM) of the same molecule?
Its IC50 is 6.48 ± 0.12 µM.

And the “Selectivity Ratio” value (HeLa; ratio of IC50 on HeLa cells and NIH/3T3 fibroblasts)?
The value was 0.45.

And the cell migration (A2780 cells)?
The cell migration was “concentration- and duration-dependent reduction in cell migration”.

What about the inhibition at 10 µM (NIH/3T3 (fibroblast); NIH3T3, 10 μM, read-out: Growth Inhibition (%) ± SEM) of the same molecule?
The inhibition at 10 µM was 34.6 ± 1.11%.

And the inhibition at 30 µM (NIH/3T3 (fibroblast); NIH3T3, 30 μM, read-out: Growth Inhibition (%) ± SEM (converted))?
Its inhibition at 30 µM is 77.2%.

What about the IC50 (NIH/3T3 (fibroblast); NIH3T3, MTT, read-out: IC50 Value (μM) ± SEM) of the same molecule?
The IC50 was 14.37 ± 0.02 µM.

For `CCC12C=CCN3CC[C@@]4(c5ccc(OC)cc5N(C)[C@H]4[C@@](O)(C(=O)OC)[C@@H]1OC(C)=O)[C@@H]32` (stereo partly drawn) [compound 2, vindoline], which “antiproliferative effects (in words)” value [1] is on record?
Its value is “do not exert antiproliferative effects”.
